Experiment [1] concerns EBOV WT (Ebola Wild Type). In words: microbe, parasite or virus in culture. The experiment is classed as cell-based. To be noted: read-out: EBOV WT (μM) (Ebola Wild Type).
Experiment [2] deals with Cat S (Homo sapiens, UniProt P25774). In words: Cat S inhibition. The experiment is classed as biochemical.
The target of experiment [3] is T1, Cat K (Homo sapiens, UniProt P43235).
T1 sequence (P43235 115-329): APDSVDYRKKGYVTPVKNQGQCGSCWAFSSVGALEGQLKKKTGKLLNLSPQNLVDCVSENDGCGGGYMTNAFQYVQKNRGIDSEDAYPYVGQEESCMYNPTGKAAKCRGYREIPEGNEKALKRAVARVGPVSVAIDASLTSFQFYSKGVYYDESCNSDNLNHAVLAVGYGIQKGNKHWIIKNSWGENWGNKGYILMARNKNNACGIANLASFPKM
The experiment in a line: Cat K inhibition. In kind it is biochemical.

The target in experiment [4] is Cathepsin L (Homo sapiens, UniProt P07711). The experiment in a line: Cathepsin L enzyme assay. The experiment is classed as biochemical. To be noted: Ki by Morrison equation; pH 5.5, substrate Z-Phe-Arg-Amc; read-out: Cat L. The source says: Two wells contained DMSO only for controls.
Sequence of Cathepsin L (P07711 114-333, species assumed): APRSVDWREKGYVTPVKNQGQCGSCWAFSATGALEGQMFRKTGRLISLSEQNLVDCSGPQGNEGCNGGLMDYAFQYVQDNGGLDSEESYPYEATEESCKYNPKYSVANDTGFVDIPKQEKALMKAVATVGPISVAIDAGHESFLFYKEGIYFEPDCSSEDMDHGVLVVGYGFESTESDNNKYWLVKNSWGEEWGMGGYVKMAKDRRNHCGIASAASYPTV
Velocity was converted to μM/sec.

The target in experiment [5] is Cathepsin B (Homo sapiens, UniProt P07858). The experiment in a line: Cathepsin B enzyme assay. The note with it: Cat B (μM), Ki by Morrison equation; pH 6.0, substrate Z-Phe-Arg-Amc.
The target in experiment [6] is Calpain. In words: Calpain enzyme assay. The experiment is classed as biochemical. The note with it: Ki by Morrison equation; pH 7.5, 5 mM CaCl2.
Experiment [7] has as its system MERS WT. The experiment in a line: microbe, parasite or virus in culture. The experiment is classed as cell-based. The note with it: for IC50: Middle East respiratory syndrome-related coronavirus, read-out: MERS WT (μM).
Experiment [8] has as its system MARV WT (Marburg Wild Type). In words: organism not typed. The experiment is classed as cell-based. To be noted: read-out: MARV WT (μM) (Marburg Wild Type).
Experiment [9] has as its system Collagen. In words: Fibrosis-Sirius Red Collagen Assay. The experiment is classed as cell-based.
Experiment [10] concerns SMA. The experiment in a line: Fibrosis-SMA Elisa. The experiment is classed as cell-based.

Structures are written as SMILES. pIC50, pKi: −log10 of the molar value. Where two headings read alike, the source gives them in different places. *1 amine or outer side, *2 acyl side, *3 side chain or, on linkers, in order; H or OH if unused. Where a SMILES comes first, the peptide text is derived from it. [ ]: non-standard residue; d: D form. The star is where a group is joined. 2Nal = N[CH](Cc1ccc2ccccc2c1)C(=O)O; X1 = CCC(C)C(N[*:1])C(=O)C(=O)[*:2]; Cbz = O=C(OCc1ccccc1)* Some results are limits rather than exact numbers.

Sequence of Cat S (P25774 115-331): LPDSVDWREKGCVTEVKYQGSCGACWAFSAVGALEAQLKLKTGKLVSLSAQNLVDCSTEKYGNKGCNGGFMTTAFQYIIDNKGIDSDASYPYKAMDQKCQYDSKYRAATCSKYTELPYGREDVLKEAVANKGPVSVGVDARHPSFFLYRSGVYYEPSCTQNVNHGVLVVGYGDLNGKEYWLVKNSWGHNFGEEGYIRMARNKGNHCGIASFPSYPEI

Consider `CC[C@H](C)[C@H](NC(=O)C(=O)C(Cc1ccccc1)NC(=O)C(Cc1ccccc1)NC(=O)Cc1ccccc1)C(=O)N1CCCC1C(N)=O` (stereo partly drawn) [PHELIX204, 1-((2-oxo-4-phenyl-3-(3-phenyl-2-(2-phenylacetamido)propanamido)butanoyl)isoleucyl)pyrrolidine-2-carboxamide], for which the IC50 turned out to be 0.13 µM in experiment [1] (Zaire ebolavirus), 1.8 µM in experiment [7] and 0.42 µM in experiment [8]. In addition, the pKi was 9.36 in experiment [2], 8.03 in [3], 11.00 in [4] and 6.69 in experiment [6]. Further, the Ki in experiment [5] is 0.277 µM.

Consider `CC(C)CC(NC(=O)OCc1ccccc1)C(=O)NC(C)C(=O)C(=O)NCC(=O)NC(Cc1ccc2ccccc2c1)C(N)=O` (stereo not drawn) [PHELIX184, benzyl (1-((4-((2-((1-amino-3-(naphthalen-2-yl)-1-oxopropan-2-yl)amino)-2-oxoethyl)amino)-3,4-dioxobutan-2-yl)amino)-4-methyl-1-oxopentan-2-yl)carbamate], for which the IC50 in experiment [1] (Zaire ebolavirus) amounted to 1.87 µM; in experiment [7] it was 7.2 µM; in [8], 3.34 µM. The pKi in [2] is 9.00; in experiment [3] it was 9.30; in experiment [4], 8.31; in experiment [6] it was 7.99. This compound displayed an inhibition constant Ki in experiment [5] of 0.641 µM.

Take `CC(C)CC(NC(=O)OCc1ccccc1)C(=O)NC(C)C(=O)C(=O)N1CC(C(=O)NC(Cc2ccccc2)C(N)=O)C1` (stereo not drawn) [PHELIX187, benzyl (1-((4-(3-((1-amino-1-oxo-3-phenylpropan-2-yl)carbamoyl)azetidin-1-yl)-3,4-dioxobutan-2-yl)amino)-4-methyl-1-oxopentan-2-yl)carbamate]: the IC50 in experiment [1] (Zaire ebolavirus) stood at 3.66 µM; in [7], 56 µM; in experiment [8], 13.5 µM. The pKi was 8.69 in experiment [2], 8.42 in experiment [3], 7.27 in [4] and 7.34 in experiment [6]. For the same compound, affinity in [5] was put at a Ki of 0.0479 µM.

`CCC(C)C(NC(=O)C(CC(C)C)NC(=O)C(Cc1ccccc1)NC(=O)OCc1ccccc1)C(=O)C(=O)NCC(=O)NC(Cc1ccc2ccccc2c1)C(N)=O` (stereo not drawn) [PHELIX270, benzyl (1-amino-9-(sec-butyl)-12-isobutyl-2-(naphthalen-2-ylmethyl)-1,4,7,8,11,14-hexaoxo-16-phenyl-3,6,10,13-tetraazahexadecan-15-yl)carbamate] (Cbz-FL[X1]G[2Nal]-NH2; configuration not given here) had a pIC50 in experiment [9] of 5.51. In addition, the pKi in [4] was 8.74; in experiment [6], 9.28. The Ki in experiment [5] is more than 10 µM. In experiment [7], the IC50 was more than 30 µM.

With `CC(NC(=O)C(Cc1ccccc1)NC(=O)Cc1ccccc1)C(=O)C(=O)NC(Cc1ccccc1)C(=O)NC(Cc1ccc2ccccc2c1)C(N)=O` (stereo not drawn) [PHELIX215, N-(1-((1-amino-3-(naphthalen-2-yl)-1-oxopropan-2-yl)amino)-1-oxo-3-phenylpropan-2-yl)-2-oxo-3-(3-phenyl-2-(2-phenylacetamido)propanamido)butanamide], the figures for the IC50 in experiment [1] and in experiment [8] were 0.02 µM and 0.16 µM, respectively. For the same compound, the pKi was 9.32 in experiment [2], 7.65 in experiment [3], 9.74 in experiment [4] and less than 5.00 in experiment [6]. Moreover, the inhibition constant Ki in experiment [5] stood at 9.24 µM. In addition, in experiment [7] (read-out: MERS WT), the pIC50 is 6.00.

With `CC(C)CC(NC(=O)C(Cc1ccccc1)NC(=O)OCc1ccccc1)C(=O)NC(Cc1ccccc1)C(=O)C(=O)NC(CCCNC(=N)N)C(N)=O` (stereo not drawn) [PHELIX254, benzyl (1-amino-10-benzyl-6-carbamoyl-1-imino-13-isobutyl-8,9,12,15-tetraoxo-17-phenyl-2,7,11,14-tetraazaheptadecan-16-yl)carbamate], in experiment [9], the pIC50 is 5.47. The values for the pKi in experiment [4] and in [6] were 9.15 and 8.47, respectively. The compound also registered a Ki in experiment [5] of 0.0432 µM. The IC50 in [7] is more than 30 µM.

As for `Cc1cccc(CC(=O)NC(Cc2ccccc2)C(=O)NC(C)C(=O)C(=O)NC(Cc2ccccc2)C(=O)NC(C)(C)C(N)=O)c1` (stereo not drawn) [PHELIX225, N-(1-((1-amino-2-methyl-1-oxopropan-2-yl)amino)-1-oxo-3-phenylpropan-2-yl)-2-oxo-3-(3-phenyl-2-(2-(m-tolyl)acetamido)propanmido)butanamide], the values for the IC50 in experiment [1] (Zaire ebolavirus) and in experiment [7] were 6.17 µM and 84.2 µM, respectively. In addition, the pKi was 8.09 in experiment [2], 6.60 in [3], 7.73 in [4] and less than 5.00 in experiment [6]. The same compound gave an inhibition constant Ki in [5] of 0.299 µM.

Compound `CCC(C)C(NC(=O)C(CC(C)C)NC(=O)CN1CCOCC1)C(=O)C(=O)NCC(=O)NC(Cc1ccc2ccccc2c1)C(N)=O` (stereo not drawn) [PHELIX314, N-(2-((1-amino-3-(naphthalen-2-yl)-1-oxopropan-2-yl)amino)-2-oxoethyl)-4-methyl-3-(4-methyl-2-(2-morpholinoacetamido)pentanamido)-2-oxohexanamide] had a pIC50 in experiment [10] of 5.92. Further, the figures for the pKi in experiment [4] and in [6] were 8.51 and 8.61, respectively. This compound came in with an inhibitory constant (Ki) in [5] of 0.387 µM.

The compound `CCC(C)C(NC(=O)C(CC(C)C)NC(=O)Cc1ccccc1)C(=O)C(=O)NCC(=O)NC(Cc1ccc2ccccc2c1)C(N)=O` (stereo not drawn) [PHELIX300, N-(2-((1-amino-3-(naphthalen-2-yl)-1-oxopropan-2-yl)amino)-2-oxoethyl)-4-methyl-3-(4-methyl-2-(2-phenylacetamido)pentanamido)-2-oxohexanamide] gave a pIC50 in [9] of 5.35. The pKi in experiment [4] is 10.70; in experiment [6] it was 9.09.

Take `CC(NC(=O)C(Cc1ccccc1F)NC(=O)Cc1ccccc1)C(=O)C(=O)NC(Cc1ccccc1)C(=O)NC(C)(C)C(N)=O` (stereo not drawn) [PHELIX207, N-(1-((1-amino-2-methyl-1-oxopropan-2-yl)amino)-1-oxo-3-phenylpropan-2-yl)-3-(3-(2-fluorophenyl)-2-(2-phenylacetamido)propanamido)-2-oxobutanamide]: the results for the IC50 in experiment [1] (Zaire ebolavirus) and in experiment [7] were 8.59 µM and 195 µM, respectively. Further, the pKi in experiment [2] was 8.59; in [3], 6.37; in [4] it was 7.82; in experiment [6] it was less than 5.00. Also, in experiment [5], the Ki amounted to 0.187 µM.

In the case of `CC(NC(=O)C(Cc1ccc2ccccc2c1)NC(=O)Cc1ccccc1)C(=O)C(=O)NC(Cc1ccccc1)C(=O)NC(C)(C)C(N)=O` (stereo not drawn) [PHELIX206, N-(1-((1-amino-2-methyl-1-oxopropan-2-yl)amino)-1-oxo-3-phenylpropan-2-yl)-3-(3-(naphthalen-2-yl)-2-(2-phenylacetamido)propanamido)-2-oxobutanamide], the values for the IC50 in [1] (Zaire ebolavirus), in experiment [7] and in experiment [8] were 2.51 µM, 12.6 µM and 4.68 µM, respectively. Also, the pKi is 8.40 in [2], less than 5.00 in experiment [3], 8.19 in experiment [4] and less than 5.00 in experiment [6]. For the same compound, the Ki in experiment [5] turned out to be 0.12 µM.

On to `CCC(C)C(NC(=O)C(CC(C)C)NC(=O)OCc1ccccc1)C(=O)C(=O)NCC(=O)N(C)C(Cc1ccccc1)C(N)=O` (stereo not drawn) [PHELIX319, benzyl (1-((1-((2-((1-amino-1-oxo-3-phenylpropan-2-yl)(methyl)amino)-2-oxoethyl)amino)-4-methyl-1,2-dioxohexan-3-yl)amino)-4-methyl-1-oxopentan-2-yl)carbamate], for which, in [9], the pIC50 was 4.93. Also, the pKi in experiment [4] was 9.55; in experiment [6], 9.17. Moreover, affinity in experiment [5] was put at a Ki of 0.456 µM.

Usually Ki stands for the dissociation constant of the complex between target and ligand, obtained from inhibition or displacement. The low end stands for higher affinity, the high end for lower affinity.

These data come from patent US20190085024A1, “Alpha-Ketoamide Inhibitors Of Cysteine Proteases” (Phelix Therapeutics, priority 2017, published 2019).
